Consider 27 compounds from patent publication US20260001876A1, “Compounds and Their Use as PDE4 Activators” (Mironid Limited, priority 2022, published 2026).

One experiment has as its system m-IMCD3 cells. Briefly: Inhibition of PGE2-stimulated in vitro cyst formation in m-IMCD3 cells (3D culture). It is filed as cell-based. As to conditions: Mus musculus, mIMCD3, 144 h; 3 μM; mean cyst area; 100% for (DMSO + PGE2) and 0% for DMSO control; 6 days of culture; read-out: % Cyst area* after incubation with 3 μM test compound. How it is done:
HEK 293 and MDCK cells (Public Health England, Cell Culture Collections) were maintained in Dulbecco's Modified Eagle's Medium (DMEM) supplemented with 10% (v/v) fetal bovine serum (FBS) (Seralab), 2 mM L-glutamine and 100 U/mL penicillin streptomycin cocktail (ThermoFisher); termed complete media. Clonal HEK 293 cell lines were maintained in complete media supplemented with 0.6 mg/ml G418 (Enzo Life Sciences). Mouse inner medullary collecting duct (m-IMCD3) cells [American Type Culture Collection (ATCC)] were maintained in media consisting of DMEM/Hams F-12 50/50 Mix (DMEM F12; Corning) supplemented with penicillin streptomycin cocktail (100 U/mL) and FBS (10% v/v) (DMEM F12-10% FBS).
Experiment 3: Inhibition of In Vitro Cyst Formation in m-IMCD3 Cells Treated with PDE4 Long Form Activators
The mouse Inner Medullary Collecting Duct cell line (m-IMCD3) spontaneously forms cystic spheroids in 3D culture with a Type 1 collagen/Matrigel extracellular matrix. This process can be stimulated with agents which raise intracellular cAMP and is used as an in vitro model for the formation of cystic structures in the kidneys of patients with ADPKD.
Rat Collagen I (Fisher Scientific) is prepared on ice by neutralising with 1M NaOH and diluting with a 2× volume of DMEM/F12+10% FBS. This is mixed 1:1.1 with ice cold Matrigel (Corning) for coating plates (coating mix), and 1:0.93 with Matrigel for cell plating (plating mix).
The assay is conducted in the wells of a 96-well plate culture dish using a total volume of 130 μL of collagen/Matrigel/DMEM F12-10% FBS suspension in growth media for each matrix plug per individual well. Initially, 30 μL of collagen/Matrigel/DMEM F12-10% FBS (coating mix) is added into the well of a 96 well plate and the collagen is set to a gel by incubating at 37° C. for at least 15 minutes. A second layer of 100 μL collagen/Matrigel suspension (plating mix) containing m-IMCD3 cells (2.75×10^6 m-IMCD3 cells per 96-well plate) is layered over the coating mix and the collagen/Matrigel/cell mix again set to a gel by incubating at 37° C. Cell cultures are maintained at 37° C. in an atmosphere of 5% CO2, 95% air.
Between 18 and 24 h after plating, test compound(s) as DMSO stock solutions [0.1% (v/v) final DMSO concentration] and PGE2 (100 nM final concentration) in DMEM F12-10% FBS are added in quadruplicate wells per condition. Media, together with the test compound and PGE2 are replenished after 2 or 3 days. After 6 days of culture z stack images of the wells are captured using the Nikon Eclipse Ti2-E microscope. Nikon General Analysis software is used to measure the following parameters in each well: the mean cyst area, the number of cysts, and the total cyst area.
PDE4 long form activators inhibited in vitro cyst formation in m-IMCD3 cells. Data are shown in Table 4 as mean cyst area (%), compared to 100% for (DMSO+PGE2) and 0% for DMSO control.
For `CCN1CC2CCC(C1)N2c1ccc2c(n1)CCN(C(=O)N[C@H]1CCOc3ccccc31)C2` [Example 167, N—((S)-chroman-4-yl)-2-(3-ethyl-3,8-diazabicyclo[3.2.1]octan-8-yl)-7,8-dihydro-1,6-naphthyridine-6(5H)-carboxamide], the activity at 3 µM is -8%. With `O=C(Cc1ccc(F)cc1)N1CCc2nc(N3CCNCC3)ccc2C1` [Example 176, 2-(4-fluorophenyl)-1-(2-(piperazin-1-yl)-7,8-dihydro-1,6-naphthyridin-6(5H)-yl)ethan-1-one], the activity at 3 µM was -2%. Take `N#Cc1ccc(CC(=O)N2CCc3nc(N4CCNCC4)ncc3C2)cc1` [Example 137, 4-(2-oxo-2-(2-(piperazin-1-yl)-7,8-dihydropyrido[4,3-d]pyrimidin-6(5H)-yl)ethyl)benzonitrile]: the activity at 3 µM was 13%. On the same count and under the same terms, the value for `CCN1CC2CCC(C1)N2c1ccc2c(n1)CCN(C(=O)N[C@@H]1CCOc3ccccc31)C2` [Example 170, N—((R)-chroman-4-yl)-2-(3-ethyl-3,8-diazabicyclo[3.2.1]octan-8-yl)-7,8-dihydro-1,6-naphthyridine-6(5H)-carboxamide] was 23%; that for `O=C(c1ccc(F)cc1)N1CCc2nc(N3C4CCC3CNC4)ccc2C1` [Example 123, (2-(3,8-diazabicyclo[3.2.1]octan-8-yl)-7,8-dihydro-1,6-naphthyridin-6(5H)-yl)(4-fluorophenyl)methanone] was -7%; that for `O=C(Cc1ccc(F)cc1)N1CCc2nc(N3CCNCC3)ncc2C1` [Example 140, 2-(4-fluorophenyl)-1-(2-(piperazin-1-yl)-7,8-dihydropyrido[4,3-d]pyrimidin-6(5H)-yl)ethan-1-one] was 6%. Same read-out and setting: the value for `COCCN1CC2CCC(C1)N2c1ccc2c(n1)CCN(C(=O)COc1ccc(F)cc1)C2` [Example 173, 2-(4-fluorophenoxy)-1-(2-(3-(2-methoxyethyl)-3,8-diazabicyclo[3.2.1]octan-8-yl)-7,8-dihydro-1,6-naphthyridin-6(5H)-yl)ethan-1-one] was 3%; that for `O=C(Cc1ccccc1)N1CCc2nc(N3CCNCC3)ccc2C1` [Example 175, 2-phenyl-1-(2-(piperazin-1-yl)-7,8-dihydro-1,6-naphthyridin-6(5H)-yl)ethan-1-one] was 2%. In the case of `O=C(Cc1ccccc1)N1CCc2nc(N3C4CCC3CNC4)ncc2C1` [Example 133, 1-(2-(3,8-diazabicyclo[3.2.1]octan-8-yl)-7,8-dihydropyrido[4,3-d]pyrimidin-6(5H)-yl)-2-phenylethan-1-one], the activity at 3 µM was -5%. As for `O=C(CC1CCCC1)N1CCc2nc(N3CC4CCC3CN4)ccc2C1` (stereo not drawn) [Example 153, 1-(2-(2,5-diazabicyclo[2.2.2]octan-2-yl)-7,8-dihydro-1,6-naphthyridin-6(5H)-yl)-2-cyclopentylethan-1-one], the activity at 3 µM came to 2%. Still for that read-out and setting: under `O=C(CC1CCCC1)N1CCc2nc(N3C4CNCC3CC(O)C4)ccc2C1` (stereo not drawn) [Example 157, 2-cyclopentyl-1-(2-(7-hydroxy-3,9-diazabicyclo[3.3.1]nonan-9-yl)-7,8-dihydro-1,6-naphthyridin-6(5H)-yl)ethan-1-one] stands 10%; under `O=C(CC1CCCCC1)N1CCc2nc(N3CCNCC3)ncc2C1` [Example 145, 2-cyclohexyl-1-(2-(piperazin-1-yl)-7,8-dihydropyrido[4,3-d]pyrimidin-6(5H)-yl)ethan-1-one], 15%. As to `COCCCN1CC2CCC(C1)N2c1ccc2c(n1)CCN(C(=O)COc1ccc(F)cc1)C2` [Example 174, 2-(4-fluorophenoxy)-1-(2-(3-(3-methoxypropyl)-3,8-diazabicyclo[3.2.1]octan-8-yl)-7,8-dihydro-1,6-naphthyridin-6(5H)-yl)ethan-1-one], the activity at 3 µM is 1%. Turning to `O=C(CC1CCCC1)N1CCc2nc(N3CCNCC3)ncc2C1` [Example 143, 2-cyclopentyl-1-(2-(piperazin-1-yl)-7,8-dihydropyrido[4,3-d]pyrimidin-6(5H)-yl)ethan-1-one], the activity at 3 µM is 22%. `O=C([C@H](O)C1CCCC1)N1CCc2nc(N3C4CCC3CNC4)ccc2C1` [Example 124, (2R)-1-(2-(3,8-diazabicyclo[3.2.1]octan-8-yl)-7,8-dihydro-1,6-naphthyridin-6(5H)-yl)-2-cyclopentyl-2-hydroxyethan-1-one]: the activity at 3 µM is 0%. Same read-out and setting: under `O=C(CC1CCCC1)N1CCc2cc(N3C4CCC3CNC4)ncc2C1` [Example 178, 1-(6-(3,8-diazabicyclo[3.2.1]octan-8-yl)-3,4-dihydro-2,7-naphthyridin-2 (1H)-yl)-2-cyclopentylethan-1-one] stands 1%; under `CCCN1CC2CCC(C1)N2c1ccc2c(n1)CCN(C(=O)COc1ccc(F)cc1)C2` [Example 172, 2-(4-fluorophenoxy)-1-(2-(3-propyl-3,8-diazabicyclo[3.2.1]octan-8-yl)-7,8-dihydro-1,6-naphthyridin-6(5H)-yl)ethan-1-one], 6%.

Turning to `Cc1ncccc1-c1ccc2c(n1)CCN(C(=O)CC1CCCC1)C2` [Example 181, 2-cyclopentyl-1-(2-(2-methylpyridin-3-yl)-7,8-dihydro-1,6-naphthyridin-6(5H)-yl)ethan-1-one], the activity at 3 µM worked out at 26%. On the same count and under the same terms, under `O=C(CC1CCCC1)N1CCc2nc(N3CC4CCC(C3)N4)ccc2C1` [Example 154, 1-(2-(3,8-diazabicyclo[3.2.1]octan-3-yl)-7,8-dihydro-1,6-naphthyridin-6(5H)-yl)-2-cyclopentylethan-1-one] stands -6%.

Staying with this experiment, now noted: Mus musculus, mIMCD3, 144 h; 10 μM; mean cyst area; 100% for (DMSO + PGE2) and 0% for DMSO control; 6 days of culture; read-out: % Cyst area* after incubation with 10 μM test compound.
For the compound `CC(C)C(C)C(=O)N1CCc2nc(N3C4CCC3CNC4)ccc2C1` (stereo not drawn) [Example 44, 1-(2-(3,8-diazabicyclo[3.2.1]octan-8-yl)-7,8-dihydro-1,6-naphthyridin-6(5H)-yl)-2,3-dimethylbutan-1-one], the activity at 10 µM is -2%. `CCN(C(=O)N1CCc2nc(N3C4CCC3CNC4)ccc2C1)C1CCCC1` [Example 64, 2-(3,8-diazabicyclo[3.2.1]octan-8-yl)-N-cyclopentyl-N-ethyl-7,8-dihydro-1,6-naphthyridine-6(5H)-carboxamide]: the activity at 10 µM was 0%. Take `CC1(CC(=O)N2CCc3nc(N4C5CCC4CNC5)ccc3C2)CCCC1` [Example 119, 1-(2-(3,8-diazabicyclo[3.2.1]octan-8-yl)-7,8-dihydro-1,6-naphthyridin-6(5H)-yl)-2-(1-methylcyclopentyl)ethan-1-one]: the activity at 10 µM is -4%.

`O=C(NC1CCC(F)(F)CC1)N1Cc2ccc(N3C4CCC3CNC4)nc2C1` [Example 89, 2-(3,8-diazabicyclo[3.2.1]octan-8-yl)-N-(4,4-difluorocyclohexyl)-5,7-dihydro-6H-pyrrolo[3,4-b]pyridine-6-carboxamide]: the activity at 10 µM came out at 2%. The same measure, in the same setting: under `CN(C(=O)N1CCc2nc(N3C4CCC3CNC4)ccc2C1)C1CCCC1` [Example 63, 2-(3,8-diazabicyclo[3.2.1]octan-8-yl)-N-cyclopentyl-N-methyl-7,8-dihydro-1,6-naphthyridine-6(5H)-carboxamide] stands 2%; under `O=C(CC1CCCC1)N1CCc2nc(N3CCN[C@@H](CO)C3)ccc2C1` (single isomer, unassigned) [Example 131], -4%; under `O=C(CC1CCC(F)(F)CC1)N1Cc2ccc(N3C4CCC3CNC4)nc2C1` [Example 87, 1-(2-(3,8-diazabicyclo[3.2.1]octan-8-yl)-5,7-dihydro-6H-pyrrolo[3,4-b]pyridin-6-yl)-2-(4,4-difluorocyclohexyl)ethan-1-one], 0%. Take `CN1CC2CCC(C1)N2c1ccc2c(n1)CCN(C(=O)CC1CCC(F)(F)CC1)C2` [Example 106, 2-(4,4-difluorocyclohexyl)-1-(2-(3-methyl-3,8-diazabicyclo[3.2.1]octan-8-yl)-7,8-dihydro-1,6-naphthyridin-6(5H)-yl)ethan-1-one]: the activity at 10 µM was 1%.
